Like-named read-outs stand apart in the source and are kept apart here.
What was measured:
[1] = tested on: Merlin-negative (encoded by NF-2) mesothelioma cells; set-up: method as in doi:10.1016/S0959-8049(12)72185-8; conditions: preclinical studies; cited from earlier work
[2] = Adverse events (CTCAE v4.0) in patients; conditions: diarrhoea, lower respiratory tract infection, nausea, vomiting
Experimental: (§2) AEs were assessed throughout the study using the National Cancer Institute Common Terminology Criteria for Adverse Events v4.0 guidelines.[13]
(§3) Haematology and clinical chemistry laboratory tests were performed at baseline, Days 1, 8, 15, 22, 29, and every 4 weeks thereafter. Electrocardiograms were performed at baseline, Days 1, 15, 22, and then every 8 weeks from Day 1.

[3] = GSK2256098 pharmacokinetics, dry blood spot, Day 15; type: in vivo; conditions: human, oral; for Cmax: read-out: Cmax, Geometric mean (%CV); for Tmax: read-out: tmax, Median (range)
Experimental: (§1) Approximately 15 μL blood was then transferred from the “end-to-end” EDTA capillary tube onto the Whatman FTA DBS card.

[4] = tested on: human carboxylesterases (eg, hCES1b, hCES1c, and hCES2); set-up: method as in GSK data on file; conditions: in vitro investigation; ref GSK data on file; cited from earlier work
[5] = GSK2256098 pharmacokinetics, whole blood, Day 15; type: in vivo, human; conditions: for Cmax: read-out: Cmax, Geometric mean (%CV); for Tmax: read-out: tmax, Median (range)
Experimental: as §1

mesothelioma = tested on: mesothelioma; set-up: method as in PMID 27733373; conditions: GSK2256098 monotherapy, phase I; cited from earlier work
[6] = set-up: method as in PMID 22805291; conditions: Trametinib 2.0 mg monotherapy (n = 13), plasma; cited from earlier work
[7] = human, in vivo
Experimental: Blood samples for pharmacokinetic analysis were collected prior to morning dosing of GSK2256098 on Day 15, and at 1, 1.5, 2, 4, 6, 8 h after the morning dose of GSK2256098. Trametinib was administered immediately after the 1.5-hour pharmacokinetic sample was collected.
For PK analysis of trametinib, blood samples were taken via an indwelling cannula (or by direct venepuncture), collected into a di-potassium ethylenediaminetetraacetic acid (K2-EDTA) tube and immediately placed on water ice. Blood samples stored on wet ice were centrifuged within 1 h of collection at approximately 1500 g for 10 min at 4 °C. Supernatant plasma was transferred to a 3.6 mL Nunc tube and stored at 20 °C before shipment. Samples were shipped frozen on dry ice at agreed timepoints throughout the study to GSK Pharmaceuticals, Upper Merion, PA, USA, for analysis.
Plasma samples were analysed for trametinib using the validated analytical method based on liquid-liquid extraction, followed by high-performance liquid chromatography mass spectrometry (HPLC-MS/MS) analysis using a TurboIonSpray interface and multiple reaction monitoring. The lower limit of quantification (LLQ) for trametinib was 0.25 ng/mL using a 50-mL aliquot of human plasma with a higher limit of quantification (HLQ) of 250 ng/mL. Blood samples were analysed for GSK2256098 using a validated analytical method based on acetonitrile extraction from dried blood spots on the Whatman FTA DBS card, followed by HPLC/MS/MS analysis using a TurboIonSpray interface and multiple reaction monitoring. The LLQ for GSK2256098 was 10 ng/mL using a 3-mm diameter.
GSK2256098 whole-blood and dry blood spot concentration-time data as well as trametinib plasma concentration-time data were analysed by standard noncompartmental methods using Phoenix WinNonlin version 6.3. Calculations of all Pharmacokinetic parameters were based on doses of GSK2256098 and trametinib administered and actual sampling times from the respective dosing.

[8] = human, in vivo; remark: listed apart in the source
Experimental: as §2, §3

[9] = GSK2256098 250 mg (n = 6) with trametinib
[10] = GSK2256098 500 mg (n = 10) with trametinib
[11] = human, oral, GSK2256098 250 mg (n = 10) with trametinib, whole blood, Day 15
[12] = human, oral, GSK2256098 500 mg (n = 21) with trametinib, whole blood, Day 15

Question: Which “activity in vitro in Merlin-negative versus Merlin-positive mesothelioma cells” value [1] does the source give for CONC(=O)c1ccccc1Nc1cc(Nc2cc(C)nn2C(C)C)ncc1Cl [GSK2256098] here?
Answer: The value was “at least 20 times”.

Question: And the “relation of the most common serious AEs to GSK2256098” value [2]?
Answer: The value was “none of these were considered related to GSK2256098”.

Question: And the AUC ([3]; GSK2256098 250 mg (n = 6) with trametinib, read-out: AUC(0–τ), Geometric mean (%CV))?
Answer: The AUC was 4980 ng·h/mL.

Question: What about the Cmax [3, 9] of the same compound?
Answer: Its Cmax is 1230 ng/mL.

Question: What about the Tmax [3, 9] of the same compound?
Answer: Its Tmax is 2.8 h.

Question: And the Cmax [3, 10]?
Answer: Its Cmax is 2830 ng/mL.

Question: What about the Tmax [3, 10] of the same compound?
Answer: The Tmax was 2 h.

Question: And the “effect on deacetylation of trametinib by human carboxylesterases” value [4]?
Answer: The value was “inhibits deacetylation of trametinib”.

Question: And the MTD in combination (high GSK2256098/low trametinib MTD, GSK2256098 part)?
Answer: The MTD in combination was 500 mg BID.

Question: And the MTD in combination (low GSK2256098/high trametinib MTD, GSK2256098 part)?
Answer: The MTD in combination was 250 mg BID.

Question: What about the AUC ([5]; human, oral, GSK2256098 250 mg (n = 10) with trametinib, whole blood, Day 15, read-out: AUC(0–τ), Geometric mean (%CV)) of the same compound?
Answer: Its AUC is 5470 ng·h/mL.

Question: What about the Cmax [5, 11] of the same compound?
Answer: The Cmax was 1400 ng/mL.

Question: What about the Tmax [5, 11] of the same compound?
Answer: Its Tmax is 2 h.

Question: What about the Cmax [5, 12] of the same compound?
Answer: Its Cmax is 2450 ng/mL.

Question: What about the Tmax [5, 12] of the same compound?
Answer: Its Tmax is 2 h.

Question: What about the “median time to Cmax (tmax)” value ([5]; post-dose, across dose groups, with trametinib) of the same compound?
Answer: Its value is roughly 2 h.

Question: And the “exposure of GSK2256098 when co-administered with trametinib” value ([5]; versus previous monotherapy study)?
Answer: Its value is “not altered”.

Question: What about the “PFS of Merlin-negative versus Merlin-positive mesothelioma patients” value (mesothelioma) of the same compound?
Answer: Its value is “nearly twice”.

Question: For CC(=O)Nc1cccc(-n2c(=O)n(C3CC3)c(=O)c3c(Nc4ccc(I)cc4F)n(C)c(=O)c(C)c32)c1 [trametinib], which “Cmax, Geometric mean (%CV)” value [6] is on record?
Answer: Its value is 22.2 (28) ng/mL.

Question: And the “tmax, Median (range)” value [6]?
Answer: The value was 1.75 (1.0–3.0) h.

Question: What about the “Trametinib exposure (Cmax and AUC) with GSK2256098 versus trametinib monotherapy” value [7] of the same compound?
Answer: The value was 2- to 4 fold.

Question: And the “median time to Cmax (tmax)” value [7]?
Answer: Its value is 1.5 to 2.5 h.

Question: What about the “tmax of trametinib with GSK2256098 co-administration” value [7] of the same compound?
Answer: Its value is “slightly delayed”.

Question: And the “subjects with an SAE that could be attributed to trametinib” value [8]?
Answer: Its value is 15%.

Question: What about the MTD in combination (high GSK2256098/low trametinib MTD, trametinib part) of the same compound?
Answer: Its MTD in combination is 0.375 mg QD.

Question: What about the MTD in combination (low GSK2256098/high trametinib MTD, trametinib part) of the same compound?
Answer: The MTD in combination was 0.5 mg QD.

Reference: paper PMC6735221, “A phase Ib dose-finding, pharmacokinetic study of the focal adhesion kinase inhibitor GSK2256098 and trametinib in patients with advanced solid tumours” (British Journal of Cancer, 2019)
